In patent publication US20250179059A1 (The Regents of the University of California, priority 2021, published 2025):
Like-named read-outs stand apart in the source and are kept apart here.

What was measured:
[1] = biological target: T1, human BRD4 bromodomain II (Homo sapiens, UniProt O60885); assay: Bromodomain binding assay (AlphaScreen), BRD4 BDII
T1 construct: human BRD4 bromodomain II [based on Genbank NM_058243, residues 349-460]; host or cells: E. coli
Summary of the method: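 Compounds (10-point, 3-fold series) were preincubated 30 min at room temperature with E. coli-expressed N-terminal His6-tagged BRD4 BDII (residues 349-460) or BDI (residues 44-170) in 50 mM HEPES pH 7.5, 100 mM NaCl, 0.05% CHAPS, 0.1% BSA, 1% DMSO. Displacement of biotinylated tetra-acetylated H4 1-21 peptide was read by AlphaScreen; IC50 from curve fitting.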

[2] = test system: human SKM-1 acute myeloid leukemia cells; assay: SKM-1 antiproliferation cell-based assay (ATPlite)
Summary of the method: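 Log-phase cells in RPMI 1640/15% FBS were seeded at 34722 cells/mL and exposed for 4 days to nine-concentration DMSO serial dilutions in triplicate. Viability was read as ATP luminescence (ATPlite 1step), and IC50 values came from variable-slope non-linear regression.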

[3] = AlphaScreen assay, Table C2, read-out: BRD4 BDII IC50
[4] = Homo sapiens, SKM-1, 96 h, SKM-1 antiproliferation assay, 4 days, Table C2
[5] = BRD4 BDII AlphaScreen assay, read-out: BRD4 BD2 IC50
[6] = Homo sapiens, SKM-1, SKM-1 antiproliferation assay

| Compound | IC50 [1, 3] [nM] | GI50 [2, 4] [nM] | IC50 [1, 5] [nM] | GI50 [2, 6] [nM] | GI50 ([2]; SKM-1 antiproliferation assay) [nM] |
| --- | --- | --- | --- | --- | --- |
| CN1CCN(c2ccc(-c3cc(F)cc(-c4ccnc(N5CCNCC5)c4)c3N)cc2Cl)C1=O [Example 406, 1-(2′-amino-3-chloro-5′-fluoro-3′-(2-(piperazin-1-yl)pyridin-4-yl)-[1,1′-biphenyl]-4-yl)-3-methylimidazolidin-2-one] | 10 to 100 | 30 to 300 | – | – | – |
| Cn1ccn(-c2ccc(-c3cc(F)cc(-c4ccnc(N5CC[C@H](N6CCOCC6)C5)c4)c3O)cc2Cl)c1=O [Example 635, (S)-1-(3-chloro-5′-fluoro-2′-hydroxy-3′-(2-(3-morpholinopyrrolidin-1-yl)pyridin-4-yl)-[1,1′-biphenyl]-4-yl)-3-methyl-1H-imidazol-2(3H)-one] | 1 to 10 | 0.3 to 30 | – | – | – |
| CO[C@H]1CCN(c2cc(-c3cc(F)cc(-c4ccc(-n5ccn(C)c5=O)c(Cl)c4)c3O)ccn2)C1 [Example 691, (S)-1-(3-chloro-5′-fluoro-2′-hydroxy-3′-(2-(3-methoxypyrrolidin-1-yl)pyridin-4-yl)-[1,1′-biphenyl]-4-yl)-3-methyl-1H-imidazol-2(3H)-one] | 0.01 to 1 | 30 to 300 | – | – | – |
| CC(=O)NC1(C)C2CCC1CN(c1cc(-c3cc(F)cc(-c4ccc(-n5ccn(C)c5=O)c(Cl)c4)c3O)ccn1)C2 (centres unmarked) [Example 780, N-(3-(4-(3′-chloro-5-fluoro-2-hydroxy-4′-(3-methyl-2-oxo-2,3-dihydro-1H-imidazol-1-yl)-[1,1′-biphenyl]-3-yl)pyridin-2-yl)-8-methyl-3-azabicyclo[3.2.1]octan-8-yl)acetamide] | 1 to 10 | 30 to 300 | – | – | – |
| CC1CCN(c2ccc(-c3cccc(-c4ccnc(N5CCNCC5)c4)c3O)cc2Cl)C1=O (centres unmarked) [Example 328, 1-(3-chloro-2′-hydroxy-3′-(2-(piperazin-1-yl)pyridin-4-yl)-[1,1′-biphenyl]-4-yl)-3-methylpyrrolidin-2-one] | 1 to 10 | 300 to 3000 | – | – | – |
| CN1CCN(c2ccc(-c3cc(C#N)cc(-c4ccnc(N5CCNCC5)c4)c3O)cc2Cl)C1=O [Example 314, 3′-chloro-6-hydroxy-4′-(3-methyl-2-oxoimidazolidin-1-yl)-5-(2-(piperazin-1-yl)pyridin-4-yl)-[1,1′-biphenyl]-3-carbonitrile] | > 100 | ≥ 3000 | – | – | – |
| CC(=O)Nc1ccc(-c2cccc(-c3ccnc(C#CCN)c3)c2O)cc1F [Example 296, N-(3′-(2-(3-aminoprop-1-yn-1-yl)pyridin-4-yl)-3-fluoro-2′-hydroxy-[1,1′-biphenyl]-4-yl)acetamide] | 10 to 100 | 300 to 3000 | – | – | – |
| CC(C)N1CCC[C@@]12CCN(c1cccc(-c3cc(F)cc(-c4ccc(-n5ccn(C)c5=O)c(Cl)c4)c3O)c1)C2 [Example 966, (S)-1-(3-chloro-5′-fluoro-2′-hydroxy-3″-(1-isopropyl-1,7-diazaspiro[4.4]nonan-7-yl)-[1,1′:3′,1″-terphenyl]-4-yl)-3-methyl-1,3-dihydro-2H-imidazol-2-one] | – | – | 1 to 10 | 30 to 300 | – |
| Cn1ccn(-c2ccc(-c3cc(Cl)cc(-c4cccc(N5CCN(C(C)(C)C)CC5)c4)c3O)cc2Cl)c1=O [Example 1024, 1-(3″-(4-(tert-butyl)piperazin-1-yl)-3,5′-dichloro-2′-hydroxy-[1,1′:3′,1″-terphenyl]-4-yl)-3-methyl-1H-imidazol-2(3H)-one] | – | – | 1 to 10 | 0.3 to 30 | – |
| Cn1cc(-c2ccc(-n3ccn(C)c3=O)c(Cl)c2)c(O)c(-c2cccc(N3CCN(C(C)(C)C)CC3)c2)c1=O [Example 1018, 3-(3-(4-(tert-butyl)piperazin-1-yl)phenyl)-5-(3-chloro-4-(3-methyl-2-oxo-2,3-dihydro-1H-imidazol-1-yl)phenyl)-4-hydroxy-1-methylpyridin-2(1H)-one] | – | – | 10 to 100 | 30 to 300 | – |
| Cn1ccn(-c2ccc(-c3cc(F)cc(-c4ccc(OC5CCNCC5)nc4)c3O)cc2Cl)c1=O [Example 445, 1-(3-chloro-5′-fluoro-2′-hydroxy-3′-(6-(piperidin-4-yloxy)pyridin-3-yl)-[1,1′-biphenyl]-4-yl)-3-methyl-1H-imidazol-2(3H)-one] | 1 to 10 | 300 to 3000 | – | – | – |
| CN1CCN(c2ccc(-c3cccc(-c4cncc(N5CC6(CNC6)C5)c4)c3O)cc2Cl)C1=O [Example 335, 1-(3′-(5-(2,6-diazaspiro[3.3]heptan-2-yl)pyridin-3-yl)-3-chloro-2′-hydroxy-[1,1′-biphenyl]-4-yl)-3-methylimidazolidin-2-one] | 1 to 10 | 300 to 3000 | – | – | – |
| Cn1ccn(-c2c(Cl)cc(-c3cc(F)cc(-c4ccnc(N5CCNCC5)c4)c3O)cc2C#N)c1=O [Example 448, 5-chloro-5′-fluoro-2′-hydroxy-4-(3-methyl-2-oxo-2,3-dihydro-1H-imidazol-1-yl)-3′-(2-(piperazin-1-yl)pyridin-4-yl)-[1,1′-biphenyl]-3-carbonitrile] | 10 to 100 | 300 to 3000 | – | – | – |
| CC(=O)NC1(c2cccc(-c3cc(F)cc(-c4ccc(-n5ccn(C)c5=O)c(Cl)c4)c3O)c2)CC1 [Example 764, N-(1-(3″-chloro-5′-fluoro-2′-hydroxy-4″-(3-methyl-2-oxo-2,3-dihydro-1H-imidazol-1-yl)-[1,1′:3′,1″-terphenyl]-3-yl)cyclopropyl)acetamide] | 1 to 10 | 300 to 3000 | – | – | – |
| Cn1ccn(-c2ccc(-c3cc(F)cc(-c4cc(F)cc(N5CCNCC5)c4)c3O)cc2Cl)c1=O [Example 706, 1-(3-chloro-3″,5′-difluoro-2′-hydroxy-5″-(piperazin-1-yl)-[1,1′:3,1″-terphenyl]-4-yl)-3-methyl-1H-imidazol-2(3H)-one] | 0.01 to 1 | 0.3 to 30 | – | – | – |
| CC(C)N1CCN(c2cc(-c3cc(F)cc(-c4ccc(-n5ccn(C)c5=O)c(Cl)c4)c3O)cn3ccnc23)CC1 [Example 670, 1-(3-chloro-5′-fluoro-2′-hydroxy-3′-(8-(4-isopropylpiperazin-1-yl)imidazo[1,2-a]pyridin-6-yl)-[1,1′-biphenyl]-4-yl)-3-methyl-1H-imidazol-2(3H)-one] | 0.01 to 1 | 0.3 to 30 | – | – | – |
| CC(C)c1cc(-c2cc(F)cc(-c3cccc(N4CCN(C(C)(C)C)CC4)c3)c2O)cc(Cl)c1-n1ccn(C)c1=O [Example 935, (S)-1-(3″-(4-(tert-butyl)piperazin-1-yl)-3-chloro-5′-fluoro-2′-hydroxy-5-isopropyl-[1,1′:3′,1″-terphenyl]-4-yl)-3-methyl-1,3-dihydro-2H-imidazol-2-one] | – | – | > 100 | – | 300 to 3000 |
| O=C1CCCN1c1ccc(-c2cccc(-c3cccc(N4CCNCC4)c3)c2O)cc1F [Example 173, 1-(3-fluoro-2′-hydroxy-3″-(piperazin-1-yl)-[1,1′:3′,1″-terphenyl]-4-yl)pyrrolidin-2-one] | 1 to 10 | 300 to 3000 | – | – | – |
| C[C@@H]1CN(c2cncc(-c3cccc(-c4ccc(N5CCCC5=O)c(Cl)c4)c3O)c2)CCN1 [Example 265, (R)-1-(3-chloro-2′-hydroxy-3′-(5-(3-methylpiperazin-1-yl)pyridin-3-yl)-[1,1'-biphenyl]-4-yl)pyrrolidin-2-one] | 1 to 10 | 30 to 300 | – | – | – |
| COc1ncc(-c2nc(C)cc(-c3ccc(-n4ccn(C)c4=O)c(Cl)c3)c2O)cc1N1CCC2(CCN2C(C)C)C1 (centres unmarked) [Example 977, 1-(2-chloro-4-(3-hydroxy-5′-(1-isopropyl-1,6-diazaspiro[3.4]octan-6-yl)-6′-methoxy-6-methyl-[2,3′-bipyridin]-4-yl)phenyl)-3-methyl-1H-imidazol-2(3H)-one] | – | – | 0.01 to 1 | 0.3 to 30 | – |
| Cc1cc(-c2ccc(-n3ccn(C)c3=O)c(Cl)c2)c(O)c(-c2cc(N3CCN(C(C)(C)C)CC3)n3ccnc3c2)n1 [Example 1002, 1-(4-(2-(5-(4-(tert-butyl)piperazin-1-yl)imidazo[1,2-a]pyridin-7-yl)-3-hydroxy-6-methylpyridin-4-yl)-2-chlorophenyl)-3-methyl-1H-imidazol-2(3H)-one] | – | – | 1 to 10 | 0.3 to 30 | – |
| Cn1ccn(-c2ccc(-c3cc(F)cc(-c4cnc(C(F)(F)F)c(N5CCN(C(C)(C)C)CC5)c4)c3O)cc2Cl)c1=O [Example 805, 1-(3′-(5-(4-(tert-butyl)piperazin-1-yl)-6-(trifluoromethyl)pyridin-3-yl)-3-chloro-5′-fluoro-2′-hydroxy-[1,1′-biphenyl]-4-yl)-3-methyl-1H-imidazol-2(3H)-one] | 1 to 10 | 30 to 300 | – | – | – |
| Cn1cc(-c2cc(F)cc(-c3ccc(-n4ccn(C)c4=O)c(Cl)c3)c2O)cc(N2CCC(C)(N)C2)c1=O (centres unmarked) [Example 723, 3-(3-amino-3-methylpyrrolidin-1-yl)-5-(3′-chloro-5-fluoro-2-hydroxy-4′-(3-methyl-2-oxo-2,3-dihydro-1H-imidazol-1-yl)-[1,1′-biphenyl]-3-yl)-1-methylpyridin-2(1H)-one] | 1 to 10 | 0.3 to 30 | – | – | – |
| CC(=O)Nc1ccc(-c2cccc(-c3cc(NCCO)nc(N4CCNCC4)c3)c2O)cc1F [Example 333, N-(3-fluoro-2′-hydroxy-3′-(2-((2-hydroxyethyl)amino)-6-(piperazin-1-yl)pyridin-4-yl)-[1,1′-biphenyl]-4-yl)acetamide] | 1 to 10 | 30 to 300 | – | – | – |
| Cn1ncn(-c2ccc(-c3cc(F)cc(-c4ccnc(N5CCNCC5)c4)c3O)cc2Cl)c1=O [Example 462, 4-(3-chloro-5′-fluoro-2′-hydroxy-3′-(2-(piperazin-1-yl)pyridin-4-yl)-[1,1′-biphenyl]-4-yl)-1-methyl-1H-1,2,4-triazol-5(4H)-one] | 1 to 10 | 30 to 300 | – | – | – |
